Assay results: ChEMBL document CHEMBL1201862, “PubChem BioAssay data set” (2004)
Counter-ions that a name gives are not always drawn.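 48-hour exposure; five concentrations; linearly interpolated endpoints. GI50 marks 50% less growth.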 Active and inactive are the calls of the source. Cut-off read from the data, not from the text of the source: active = GI50 up to about 1.1 µM and inactive = higher.

What was measured:
Assay in all cases: DTP human tumour cell line panel, 48 h
HL-60 = system: HL-60
OVCAR-8 = system: OVCAR-8
A498 = system: A498
OVCAR-5 = system: OVCAR-5
PC-3 = system: PC-3
HOP-62 = system: HOP-62
BT-549 = system: BT-549
MCF7 = system: MCF7
SK-OV-3 = system: SK-OV-3
SNB-19 = system: SNB-19
T47D = system: T47D
UO-31 = system: UO-31
COLO 205 = system: COLO 205
M14 = system: M14
KM12 = system: KM12
HCT-116 = system: HCT-116
SK-MEL-2 = system: SK-MEL-2
HT-29 = system: HT-29
OVCAR-4 = system: OVCAR-4
Hs-578T = system: Hs-578T

| SMILES | GI50 (HL-60) | GI50 (OVCAR-8) | GI50 (A498) | GI50 (OVCAR-5) | GI50 (PC-3) | GI50 (HOP-62) | GI50 (BT-549) | GI50 (MCF7) | GI50 (SK-OV-3) | GI50 (SNB-19) | GI50 (T47D) | GI50 (UO-31) | GI50 (COLO 205) | GI50 (M14) | GI50 (KM12) | GI50 (HCT-116) | GI50 (SK-MEL-2) | GI50 (HT-29) | GI50 (OVCAR-4) | GI50 (Hs-578T) |
| --- | --- | --- | --- | --- | --- | --- | --- | --- | --- | --- | --- | --- | --- | --- | --- | --- | --- | --- | --- | --- |
| C[C@]12CCC3c4ccc(O)cc4CC[C@H]3C1CC(=O)NC2=O (some centres undefined) | > 10 µM (inactive) | > 10 µM (inactive) | > 10 µM (inactive) | > 10 µM (inactive) | > 10 µM (inactive) | > 10 µM (inactive) | > 10 µM (inactive) | > 10 µM (inactive) | > 10 µM (inactive) | > 10 µM (inactive) | > 10 µM (inactive) | > 10 µM (inactive) | > 10 µM (inactive) | > 10 µM (inactive) | > 10 µM (inactive) | > 10 µM (inactive) | > 10 µM (inactive) | > 10 µM (inactive) | > 10 µM (inactive) | – |
| O=C(/C=C/c1ccccc1)NNC(=O)c1c(Cl)c(Cl)c(Cl)c(Cl)c1-c1nc2ccccc2[nH]1 | 20.3 µM (inactive) | 32 µM (inactive) | 29.6 µM (inactive) | 25 µM (inactive) | 32.5 µM (inactive) | 0.0442 µM (active) | 28.2 µM (inactive) | 24.2 µM (inactive) | 0.0453 µM (active) | – | 18.4 µM (inactive) | 19.5 µM (inactive) | 18 µM (inactive) | 25.8 µM (inactive) | – | 22.1 µM (inactive) | 39.4 µM (inactive) | 32.8 µM (inactive) | 49.4 µM (inactive) | – |
| CC1(C)CC(=O)C(=CNc2nc(-c3ccccc3)cs2)C(=O)C1 | 47.9 µM (inactive) | 48.6 µM (inactive) | – | > 100 µM (inactive) | 38.6 µM (inactive) | 34.2 µM (inactive) | – | 29.2 µM (inactive) | > 100 µM (inactive) | 71.4 µM (inactive) | 32.7 µM (inactive) | 20.7 µM (inactive) | 33 µM (inactive) | 41.1 µM (inactive) | 32.1 µM (inactive) | > 100 µM (inactive) | 34.7 µM (inactive) | 33.6 µM (inactive) | 69.5 µM (inactive) | – |
| O=C(Nc1ccc(S(=O)(=O)Nc2ncccn2)cc1)c1c2ccccc2nc2ccccc12 | < 0.01 µM (active) | > 100 µM (inactive) | > 100 µM (inactive) | > 100 µM (inactive) | > 100 µM (inactive) | > 100 µM (inactive) | > 100 µM (inactive) | > 100 µM (inactive) | > 100 µM (inactive) | > 100 µM (inactive) | – | > 100 µM (inactive) | > 100 µM (inactive) | > 100 µM (inactive) | > 100 µM (inactive) | > 100 µM (inactive) | > 100 µM (inactive) | > 100 µM (inactive) | > 100 µM (inactive) | – |
| COC(=O)CCC1(CCC(=O)OC)CCCCCCC(CCC(=O)OC)(CCC(=O)OC)C(=O)C1=O | – | > 100 µM (inactive) | > 100 µM (inactive) | > 100 µM (inactive) | 47.8 µM (inactive) | > 100 µM (inactive) | – | > 100 µM (inactive) | > 100 µM (inactive) | > 100 µM (inactive) | 20.5 µM (inactive) | 44.4 µM (inactive) | 54 µM (inactive) | 74.1 µM (inactive) | > 100 µM (inactive) | > 100 µM (inactive) | > 100 µM (inactive) | 60.3 µM (inactive) | – | > 100 µM (inactive) |
| COc1cccc(-c2nc(-c3cnccn3)n(Cc3ccccc3)n2)c1 | > 100 µM (inactive) | > 100 µM (inactive) | – | > 100 µM (inactive) | > 100 µM (inactive) | 44.4 µM (inactive) | > 100 µM (inactive) | > 100 µM (inactive) | 75.9 µM (inactive) | 90.4 µM (inactive) | > 100 µM (inactive) | 73.5 µM (inactive) | > 100 µM (inactive) | > 100 µM (inactive) | > 100 µM (inactive) | > 100 µM (inactive) | – | > 100 µM (inactive) | 21.6 µM (inactive) | – |
| C/C(=N\Nc1ccccc1Br)c1cccc(/C(C)=N/Nc2ccccc2Br)n1 | > 100 µM (inactive) | > 100 µM (inactive) | 45.9 µM (inactive) | > 100 µM (inactive) | 42.8 µM (inactive) | 49.8 µM (inactive) | > 100 µM (inactive) | 54.1 µM (inactive) | – | 63.1 µM (inactive) | – | > 100 µM (inactive) | 68.2 µM (inactive) | > 100 µM (inactive) | 52.6 µM (inactive) | > 100 µM (inactive) | 39 µM (inactive) | > 100 µM (inactive) | > 100 µM (inactive) | – |
| OC1(c2ccccc2)CCCCCCCCC(O)(c2ccccc2)CCCCCCCC1 (centres undefined) | 59.2 µM (inactive) | > 100 µM (inactive) | > 100 µM (inactive) | > 100 µM (inactive) | > 100 µM (inactive) | > 100 µM (inactive) | – | > 100 µM (inactive) | > 100 µM (inactive) | > 100 µM (inactive) | > 100 µM (inactive) | > 100 µM (inactive) | > 100 µM (inactive) | > 100 µM (inactive) | > 100 µM (inactive) | > 100 µM (inactive) | > 100 µM (inactive) | > 100 µM (inactive) | > 100 µM (inactive) | – |
| COCCOCN(C(=O)C1=CCC2(CC1)OCCO2)c1ccccc1I | – | > 50 µM (inactive) | > 50 µM (inactive) | > 50 µM (inactive) | > 50 µM (inactive) | > 50 µM (inactive) | – | > 50 µM (inactive) | > 50 µM (inactive) | > 50 µM (inactive) | > 50 µM (inactive) | > 50 µM (inactive) | > 50 µM (inactive) | > 50 µM (inactive) | > 50 µM (inactive) | > 50 µM (inactive) | > 50 µM (inactive) | > 50 µM (inactive) | > 50 µM (inactive) | – |
| CCOc1ccc(N/C(=C(/C(Cl)=C(/Cl)Nc2ccccc2)[N+](=O)[O-])n2nnc3ccccc32)cc1 | – | – | > 100 µM (inactive) | 35.5 µM (inactive) | 23.2 µM (inactive) | 24.5 µM (inactive) | 13.3 µM (inactive) | 35.7 µM (inactive) | 40 µM (inactive) | 30.1 µM (inactive) | 40.5 µM (inactive) | 17.1 µM (inactive) | 20.7 µM (inactive) | 16 µM (inactive) | 32.7 µM (inactive) | 22.8 µM (inactive) | 26.3 µM (inactive) | – | 42.5 µM (inactive) | – |
| C/C(=C\[Si](C)(C)c1ccco1)C(C)(O)[C@H](C)O (some centres undefined) | 26.9 µM (inactive) | 55.1 µM (inactive) | 76 µM (inactive) | > 100 µM (inactive) | 38.9 µM (inactive) | > 100 µM (inactive) | – | 32.9 µM (inactive) | > 100 µM (inactive) | > 100 µM (inactive) | 16.4 µM (inactive) | – | 36.5 µM (inactive) | > 100 µM (inactive) | 40.6 µM (inactive) | 41.6 µM (inactive) | 91.6 µM (inactive) | 41 µM (inactive) | 2.9 µM (inactive) | 55.3 µM (inactive) |
| O=C1O/C(=C/c2ccccc2)C(c2ccccc2)=C1O | 20.1 µM (inactive) | 60.1 µM (inactive) | 23.1 µM (inactive) | > 100 µM (inactive) | 29.2 µM (inactive) | 29.4 µM (inactive) | – | 34.4 µM (inactive) | 61.9 µM (inactive) | 47.5 µM (inactive) | 27.2 µM (inactive) | 27 µM (inactive) | > 100 µM (inactive) | 59.8 µM (inactive) | 59.8 µM (inactive) | 36.9 µM (inactive) | 17.5 µM (inactive) | > 100 µM (inactive) | 55.3 µM (inactive) | – |
| CCCCOC(C)(C)/C=C/C(O)[C@](C)(O)[C@H]1[C@H](O)C[C@@]2(C)[C@@H]3CCc4c(cc(OC5OC(CO)C(O)C(O)C5O)c(O)c4C)C3(C)C(=O)C[C@]12C (some centres undefined) | – | > 100 µM (inactive) | > 100 µM (inactive) | > 100 µM (inactive) | > 100 µM (inactive) | > 100 µM (inactive) | > 100 µM (inactive) | > 100 µM (inactive) | > 100 µM (inactive) | > 100 µM (inactive) | > 100 µM (inactive) | > 100 µM (inactive) | > 100 µM (inactive) | > 100 µM (inactive) | > 100 µM (inactive) | > 100 µM (inactive) | > 100 µM (inactive) | > 100 µM (inactive) | > 100 µM (inactive) | – |
| O=c1cc(-c2ccccc2F)[nH]c2ccc(N3CCCC3)cc12 | > 100 µM (inactive) | 0.0624 µM (active) | 0.0215 µM (active) | 0.1 µM (active) | < 0.001 µM (active) | 0.34 µM (active) | – | 0.00745 µM (active) | > 100 µM (inactive) | 0.0214 µM (active) | > 10 µM (inactive) | 0.00274 µM (active) | 0.0557 µM (active) | 0.0301 µM (active) | 0.0955 µM (active) | – | 0.0167 µM (active) | 0.0284 µM (active) | 0.0269 µM (active) | 0.0201 µM (active) |
| CC1(C)CCC2=C(O1)c1ccccc1C(=O)C2=O [LAPACHONE] | – | 0.398 µM (active) | 5.42 µM (inactive) | 0.571 µM (active) | 0.847 µM (active) | 0.647 µM (active) | 0.721 µM (active) | 0.455 µM (active) | 1.85 µM (inactive) | – | 0.411 µM (active) | – | 1.91 µM (inactive) | 0.316 µM (active) | 1.36 µM (inactive) | 0.277 µM (active) | 1.42 µM (inactive) | 2.5 µM (inactive) | 0.684 µM (active) | – |
| CC(CN1c2ccccc2Sc2ccccc21)N(C)C (centres undefined) [PROMETHAZINE HYDROCHLORIDE] | 22.7 µM (inactive) | 16.2 µM (inactive) | 19.6 µM (inactive) | 18.2 µM (inactive) | 15.8 µM (inactive) | 15.2 µM (inactive) | – | 25.8 µM (inactive) | 18.3 µM (inactive) | 17.4 µM (inactive) | 21.5 µM (inactive) | 17.9 µM (inactive) | 14.1 µM (inactive) | 17.3 µM (inactive) | 20.8 µM (inactive) | 15.5 µM (inactive) | 18 µM (inactive) | 16.4 µM (inactive) | 16.4 µM (inactive) | – |
